What all share (assay): inhibition of tumour cell growth, NCI panel, 48 h
The subject of assay [1] is K562.
Assay [2] deals with EKVX.
Assay [3] deals with RPMI-8226.
Assay [4] deals with SF-268.
Assay [5] has as its system M14.
Assay [6] deals with SK-OV-3.
The test system of assay [7] is SR.
Assay [8] has as its system CCRF-CEM.
In assay [9] the test system is 786-0.
The subject of assay [10] is CAKI-1.
In assay [11] the test system is SK-MEL-28.
Assay [12] concerns SK-MEL-2.
Assay [13] concerns SF-295.
The test system of assay [14] is Hs-578T.
Assay [15] deals with NCI-H522.
Assay [16] has as its system MDA-MB-435.
The test system of assay [17] is SK-MEL-5.
Assay [18] deals with ACHN.
Assay [19] deals with LOX IMVI.

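These data come from cells grown in 96-well plates and exposed to compound for 48 hours at five concentrations. At the GI50, growth is halved.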 Activity calls are given as the source filed them. Rule as the data show it: active = GI50 up to about 1.1 µM and inactive = higher. Some results are limits rather than exact numbers.

This is an account of results in ChEMBL document CHEMBL1201862, “PubChem BioAssay data set” (2004).

On to `O=C(O)CCCc1ccc2ccccc2c1`, for which the GI50 in [1] is > 100 µM (inactive); in assay [2], > 100 µM (inactive); in assay [3], 42.9 µM (inactive); in assay [4], > 100 µM (inactive); in assay [5], > 100 µM (inactive); in assay [6], > 100 µM (inactive). Also, the GI50 is 97.9 µM (inactive) in assay [7]; > 100 µM (inactive) in assay [8]; > 100 µM (inactive) in assay [9]; > 100 µM (inactive) in assay [10]; > 100 µM (inactive) in [11]; > 100 µM (inactive) in [12]. The GI50 in assay [13], in [14], in assay [15], in assay [16], in [17] and in [18] was > 100 µM (inactive) throughout. The GI50 in assay [19] is > 100 µM (inactive).
On to `O=C1C(=C(C(=O)c2ccccc2)C(=O)c2ccccc2)OC(c2ccccc2)=C1C(=O)c1ccccc1`, for which the GI50 in assay [1] is 6.03 µM (inactive); in assay [2], 8.28 µM (inactive); in [3], 5.56 µM (inactive); in assay [4], 3.8 µM (inactive); in assay [5], 7.41 µM (inactive); in assay [6], 6.93 µM (inactive). Besides, the GI50 was 2.28 µM (inactive) in assay [7]; 1.78 µM (inactive) in assay [8]; 3.51 µM (inactive) in assay [9]; 0.597 µM (active) in [10]; 13.9 µM (inactive) in assay [11]; 10.8 µM (inactive) in assay [12]. The GI50 in [13] was 4.79 µM (inactive); in assay [14] it was 11.5 µM (inactive); in assay [15] it was 1.22 µM (inactive); in assay [16], 8.2 µM (inactive); in assay [17], 7.14 µM (inactive); in assay [18], 4.88 µM (inactive). The GI50 in [19] is 1.77 µM (inactive).
For `CC(=O)O[C@H]1/C(=C/c2ccncc2)C[C@H]2[C@@H]3CC=C4C[C@@H](N5CCCC5)CC[C@]4(C)[C@H]3CC[C@]12C`, the GI50 was 2.74 µM (inactive) in assay [1]; 13.9 µM (inactive) in assay [2]; 6.1 µM (inactive) in assay [3]; 15.1 µM (inactive) in assay [4]; 9.35 µM (inactive) in assay [5]; 17.9 µM (inactive) in assay [6]. For the same molecule, the GI50 in assay [7] was 5.2 µM (inactive); in assay [8], 15.2 µM (inactive); in assay [9] it was 3.15 µM (inactive); in assay [10], 14 µM (inactive); in assay [11] it was 12.7 µM (inactive); in assay [12] it was 15.5 µM (inactive). For the same molecule, the GI50 in [13] was 14.5 µM (inactive); in assay [14], 16.6 µM (inactive); in assay [15], 15.2 µM (inactive); in assay [16], 12.1 µM (inactive); in assay [17], 8.53 µM (inactive); in assay [18], 14.1 µM (inactive). For the same molecule, the GI50 in [19] was 2.32 µM (inactive).
Consider `O=c1[nH]c2c(Nc3c4ccccc4nc4ccccc34)c([N+](=O)[O-])c(Nc3c4ccccc4nc4ccccc34)c([N+](=O)[O-])c2[nH]1`, for which the GI50 in assay [1] was 2.59 µM (inactive); in assay [2] it was 1.82 µM (inactive); in assay [3], 0.514 µM (active); in assay [4], 1.98 µM (inactive); in [5], 1.84 µM (inactive); in assay [6], 3.03 µM (inactive). Besides, the GI50 in [7] is 0.741 µM (active); in assay [8] it was 0.855 µM (active); in [9], 1.2 µM (inactive); in assay [10], 2.15 µM (inactive); in assay [11], 3.13 µM (inactive); in assay [12], 1.87 µM (inactive). Further, the GI50 in [13] was 2.41 µM (inactive); in assay [14], 2.27 µM (inactive); in assay [15] it was 1.09 µM (active); in assay [16] it was 2.15 µM (inactive); in assay [17], 2.11 µM (inactive); in assay [18], 0.6 µM (active). In [19], the GI50 was 1.52 µM (inactive).
In the case of `CN(C)/N=N/c1nc2c(c(=O)n(C)c(=O)n2C)n1C`, the GI50 in [1], in assay [2], in assay [3], in assay [4], in assay [5] and in [6] was > 100 µM (inactive) each time. Also, the GI50 is 4.04 µM (inactive) in assay [7]; > 100 µM (inactive) in assay [8]; > 100 µM (inactive) in assay [9]; > 100 µM (inactive) in [10]; > 100 µM (inactive) in assay [11]; > 100 µM (inactive) in [12]. Further, the GI50 in assay [13], in [14], in [15], in assay [16], in assay [17] and in [18] was > 100 µM (inactive) each time. Moreover, in assay [19], the GI50 is > 100 µM (inactive).
On to `N=C(N)CCNC(=O)C1CCC(N)=N1` (stereo unspecified), for which the GI50 in assay [1] is 13.2 µM (inactive); in [2], 9.12 µM (inactive); in assay [3], 29.9 µM (inactive); in assay [4] it was 10.3 µM (inactive); in [5] it was 24.7 µM (inactive); in assay [6], 9.59 µM (inactive). Further, the GI50 in assay [7] was 18.5 µM (inactive); in assay [8], 12.5 µM (inactive); in assay [9], 13.1 µM (inactive); in [10], 10.6 µM (inactive); in assay [11] it was 19.2 µM (inactive); in assay [12], 27.2 µM (inactive). Further, the GI50 was 18.9 µM (inactive) in [13]; 8.36 µM (inactive) in assay [14]; 23 µM (inactive) in assay [15]; 31.5 µM (inactive) in assay [16]; 16.4 µM (inactive) in [17]; 13.8 µM (inactive) in assay [18]. Further, the GI50 in assay [19] is 15.8 µM (inactive).
In the case of `CN1CCN(C(=S)N2CCN(C)CC2)CC1`, the GI50 is 7.98 µM (inactive) in [1]; 2.06 µM (inactive) in [3]; > 100 µM (inactive) in [4]; > 48.1 µM (inactive) in assay [5]; > 30.1 µM (inactive) in assay [6]; 0.213 µM (active) in assay [7]. Further, the GI50 is 0.7 µM (active) in [8]; 21.9 µM (inactive) in assay [9]; > 100 µM (inactive) in assay [10]; > 100 µM (inactive) in [11]; > 100 µM (inactive) in [12]; > 100 µM (inactive) in assay [13]. Moreover, the GI50 is > 100 µM (inactive) in assay [14]; 0.966 µM (active) in assay [15]; > 100 µM (inactive) in [16]; > 26.1 µM (inactive) in assay [17]; > 100 µM (inactive) in assay [18]; > 100 µM (inactive) in assay [19].
On to `COc1cc2c(/C=C3/C(=O)Nc4cc(C)c(O)cc43)c(Cl)[nH]c2cc1C`, for which the GI50 was 0.815 µM (active) in [1]; 1.75 µM (inactive) in [3]; 6.12 µM (inactive) in assay [4]; 1.86 µM (inactive) in assay [5]; 2.1 µM (inactive) in [6]; 0.376 µM (active) in [7]. Further, the GI50 in assay [8] was 0.552 µM (active); in [9], 2.59 µM (inactive); in assay [10], 2.55 µM (inactive); in [11] it was 4.91 µM (inactive); in assay [12], 4.98 µM (inactive); in assay [13], 1.52 µM (inactive). Moreover, the GI50 in assay [14] is 2.13 µM (inactive); in assay [15] it was 2.98 µM (inactive); in assay [16], 0.368 µM (active); in assay [17] it was 2.31 µM (inactive); in [18], 4.37 µM (inactive); in [19], 5.61 µM (inactive).
As for `Cc1cc(S(=O)(=O)/N=C(\NN)NNc2cccc(C(F)(F)F)n2)c(S)cc1Cl`, the GI50 in assay [1] is 22.7 µM (inactive); in [2] it was 22.6 µM (inactive); in assay [3], 32.1 µM (inactive); in assay [4], 21.4 µM (inactive); in [5], 17.9 µM (inactive); in [6], 25.4 µM (inactive). In addition, the GI50 in assay [7] was 21.3 µM (inactive); in [8], 23.3 µM (inactive); in [9] it was 19.4 µM (inactive); in assay [10], 20.8 µM (inactive); in [11], 15 µM (inactive); in assay [12], 25.5 µM (inactive). Also, the GI50 was 22.2 µM (inactive) in [14]; 24.4 µM (inactive) in assay [15]; 18.2 µM (inactive) in [16]; 20 µM (inactive) in [17]; 21.4 µM (inactive) in assay [18]; 18.9 µM (inactive) in assay [19].
Consider `Cc1c(O)ccc2c(O)c(NC(=O)c3ccc4c(c3)CCC(C)(C)O4)c(=O)oc12` [CYCLONOVOBIOCIC ACID], for which the GI50 in [1], in assay [2], in assay [3], in assay [4], in assay [6] and in assay [7] was > 100 µM (inactive) throughout. Besides, the GI50 in assay [8], in assay [9], in [10], in [11], in assay [12] and in assay [13] was > 100 µM (inactive) each time. The GI50 in assay [14], in assay [15], in assay [16], in assay [17], in [18] and in assay [19] was > 100 µM (inactive) each time.
